pIC50: −log10 of the molar value.
Target: T1, mGluR5 receptor (pig) (Sus scrofa, UniProt I3LUI7)
T1 construct: 450 μg of protein from brain homogenate is incubated; from tissue; host or cells: pig brain hemispheres without medulla, cerebellum and pons
Assay: [3H]-MPEP binding in the mGluR5 receptor binding assay (pig brain homogenate)
Conditions: 10 μM test compound; 5 nM [3H]-MPEP; 450 μg protein from pig brain homogenate; 60 min, room temperature
Procedure: I. Method for Determining the Inhibition of [^3H]-MPEP Binding in the mGluR5 Receptor Binding Assay
Pig brain homogenate is produced by homogenisation (Polytron Pt 3000, Kinematica AG, 10,000 revolutions per minute for 90 seconds) of pig brain hemispheres without medulla, cerebellum and pons in a buffer of pH 8.0 (30 mM Hepes, Sigma, order number H3375+1 tablet Complete Roche Diagnostics, order number 1836145 made up to 100 ml) in a ratio of 1:20 (brain weight/volume) and differential centrifugation at 900×g and 40,000×g. 450 μg of protein from brain homogenate is incubated in each case in 250 μl incubation batches in 96-well microtitre plates with 5 nM ^3[H]-MPEP (Tocris, order number R1212) (MPEP=[…]) and the compounds to be investigated ([…]) in the buffer (as above) at room temperature for 60 min.
The batches are then filtered with the assistance of a Brandel Cell Harvester (Brandel, Robotic 9600 model) on Unifilter plates with glass filter mats (Perkin Elmer, order number 6005177) and then washed 3 times with buffer (as above) using 250 μl per sample. The filter plates are then dried for 60 min at 55° C. Then 30 μl of Ultima Gold™ scintillating material (Packard BioScience, order number 6013159) is added per well and after 3 hours the samples are measured using the β counter (Microbeta, Perkin Elmer). Nonspecific binding is determined by the addition of 10 μM MPEP (Tocris, order number 1212).

T1 sequence (I3LUI7 19-1212): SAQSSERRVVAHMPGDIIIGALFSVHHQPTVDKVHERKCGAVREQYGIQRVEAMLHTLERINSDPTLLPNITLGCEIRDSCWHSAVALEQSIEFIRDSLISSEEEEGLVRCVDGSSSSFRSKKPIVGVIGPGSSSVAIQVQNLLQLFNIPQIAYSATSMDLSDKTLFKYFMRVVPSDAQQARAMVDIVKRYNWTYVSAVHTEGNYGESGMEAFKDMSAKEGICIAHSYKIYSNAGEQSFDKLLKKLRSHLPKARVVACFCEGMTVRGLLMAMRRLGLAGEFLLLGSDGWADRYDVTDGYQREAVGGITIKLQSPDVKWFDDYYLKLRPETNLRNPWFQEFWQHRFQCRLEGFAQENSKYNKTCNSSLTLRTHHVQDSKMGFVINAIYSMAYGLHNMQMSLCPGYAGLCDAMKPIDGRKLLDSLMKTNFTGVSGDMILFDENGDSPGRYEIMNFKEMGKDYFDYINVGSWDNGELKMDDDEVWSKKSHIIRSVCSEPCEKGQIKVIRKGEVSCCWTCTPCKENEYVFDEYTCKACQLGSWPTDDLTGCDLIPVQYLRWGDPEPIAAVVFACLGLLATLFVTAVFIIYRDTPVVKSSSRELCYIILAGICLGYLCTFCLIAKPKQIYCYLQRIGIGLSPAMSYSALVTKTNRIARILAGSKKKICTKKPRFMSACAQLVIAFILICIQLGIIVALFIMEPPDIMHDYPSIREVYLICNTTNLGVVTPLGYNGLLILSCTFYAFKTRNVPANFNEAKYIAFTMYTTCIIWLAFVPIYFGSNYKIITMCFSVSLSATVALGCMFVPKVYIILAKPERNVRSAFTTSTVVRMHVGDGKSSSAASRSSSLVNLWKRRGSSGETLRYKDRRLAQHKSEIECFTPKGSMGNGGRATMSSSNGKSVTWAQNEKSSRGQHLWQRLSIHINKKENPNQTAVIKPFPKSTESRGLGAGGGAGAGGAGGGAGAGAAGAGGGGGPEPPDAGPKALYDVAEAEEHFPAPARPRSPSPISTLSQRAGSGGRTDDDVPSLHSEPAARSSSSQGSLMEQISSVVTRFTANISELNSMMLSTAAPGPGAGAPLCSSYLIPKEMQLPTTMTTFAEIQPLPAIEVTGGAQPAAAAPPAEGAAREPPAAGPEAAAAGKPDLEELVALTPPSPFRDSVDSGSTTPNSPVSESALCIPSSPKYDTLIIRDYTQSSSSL

SMILES	inhibition at 10 µM	mGluR5 receptor (pig) (10 μM) Inhibition (%)
O=C(C#Cc1ccccc1)N1CCn2cnnc2C1 [Example 10, 7-(3-phenyl-propiolyl)-5,6,7,8-tetrahydro-[1,2,4]triazolo[4,3-a]pyrazine]	16%	
CC1Cc2ccccc2N1C(=O)C#Cc1ccc(F)cc1F (stereo not drawn) [Example 33, 1-(3-(2,4-difluorophenyl)-propiolyl)-2-methyl-indoline]		27%
COc1cccc(C#CC(=O)N2CCc3ccccc3C2)c1 [Example 34, 2-(3-(3-methoxyphenyl)-propiolyl)-1,2,3,4-tetrahydro-isoquinoline]		12%
Cc1cc(C#CC(=O)N2CCc3ccccc3C2)ccc1F [Example 35, 2-(3-(4-fluoro-3-methylphenyl)-propiolyl)-1,2,3,4-tetrahydro-isoquinoline]		77%
Cc1cc(C#CC(=O)N2c3ccccc3CC2C)ccc1F (stereo not drawn) [Example 36, 1-(3-(4-fluoro-3-methylphenyl)-propiolyl)-2-methyl-indoline]		27%
O=C(C#Cc1ccccc1F)N1CCc2ccccc2C1 [Example 37, 2-(3-(2-fluorophenyl)-propiolyl)-1,2,3,4-tetrahydro-isoquinoline]		83%
CC1Cc2ccccc2N1C(=O)C#Cc1ccccc1F (stereo not drawn) [Example 38, 1-(3-(2-fluorophenyl)-propiolyl)-2-methyl-indoline]		49%
Cc1ccc(C#CC(=O)N2CCc3ccccc3C2)cc1 [Example 39, 2-(3-(4-tolyl)-propiolyl)-1,2,3,4-tetrahydro-isoquinoline]		44%
Cc1ccc(C#CC(=O)N2c3ccccc3CC2C)cc1 (stereo not drawn) [Example 40, 1-(3-(4-tolyl)-propiolyl)-2-methyl-indoline]		34%
O=C(C#Cc1ccc(C(F)(F)F)cc1)N1CCc2ccccc2C1 [Example 41, 2-(3-(4-trifluoromethylphenyl)-propiolyl)-1,2,3,4-tetrahydro-isoquinoline]		16%
O=C(C#Cc1ccccc1)N1CCc2ccccc2C1 [Example 43, 2-(3-phenyl-propiolyl)-1,2,3,4-tetrahydro-isoquinoline]		84%
CC1Cc2ccccc2N1C(=O)C#Cc1ccccc1 (stereo not drawn) [Example 44, 1-(3-phenyl-propiolyl)-2-methyl-indoline]		39%
Cc1cccc(C#CC(=O)N2c3ccccc3CC2C)c1C (stereo not drawn) [Example 46, 1-(3-(2,3-dimethylphenyl)-propiolyl)-2-methyl-indoline]		18%
CC1Cc2ccccc2N1C(=O)C#Cc1ccc(Cl)cc1Cl (stereo not drawn) [Example 50, 1-(3-(2,4-dichlorophenyl)-propiolyl)-2-methyl-indoline]		16%
Cc1cccc(C#CC(=O)N2CCc3ccccc3C2)c1 [Example 51, 2-(3-(3-tolyl)-propiolyl)-1,2,3,4-tetrahydro-isoquinoline]		103%
Cc1cccc(C#CC(=O)N2c3ccccc3CC2C)c1 (stereo not drawn) [Example 52, 1-(3-(3-tolyl)-propiolyl)-2-methyl-indoline]		68%
COc1ccc(C#CC(=O)N2CCc3ccccc3C2)cc1 [Example 53, 2-(3-(4-methoxyphenyl)-propiolyl)-1,2,3,4-tetrahydro-isoquinoline]		24%
COc1ccc(C#CC(=O)N2c3ccccc3CC2C)cc1 (stereo not drawn) [Example 54, 1-(3-(4-methoxyphenyl)-propiolyl)-2-methyl-indoline]		46%
O=C(C#Cc1cccs1)N1CCc2ccccc2C1 [Example 55, 2-(3-(2-thienyl)-propiolyl)-1,2,3,4-tetrahydro-isoquinoline]		86%
CC1Cc2ccccc2N1C(=O)C#Cc1cccs1 (stereo not drawn) [Example 56, 1-(3-(2-thienyl)-propiolyl)-2-methyl-indoline]		48%
Cc1ccc(C#CC(=O)N2CCCc3ccccc32)cc1 [Example 57, 1-(3-(4-tolyl)-propiolyl)-1,2,3,4-tetrahydro-quinoline]		18%

Same assay, conditions: pig brain homogenate; 5 nM [3H]-MPEP

SMILES	pIC50
O=C(C#Cc1ccccc1)N1CCCc2ccccc21 [Example 2, 1-(3-phenyl-propiolyl)-1,2,3,4-tetrahydro-quinoline]	5.76
O=C(C#Cc1ccccc1)N1CCc2ccccc21 [Example 3, 1-(3-phenyl-propiolyl)-2,3-dihydro-indole]	5.10
O=C(C#Cc1ccccc1)N1CCc2ncccc2C1 [Example 4, 6-(3-phenyl-propiolyl)-5,6,7,8-tetrahydro-[1,6]naphthyridine]	5.63
O=C(C#Cc1ccccc1)N1Cc2ccccc2C1 [Example 6, 2-(3-phenyl-propiolyl)-2,3-dihydro-isoindole]	5.74
O=C(C#Cc1ccccn1)N1CCc2ccccc2C1 [Example 7, 2-(3-pyrid-2-yl-propiolyl)-1,2,3,4-tetrahydro-isoquinoline]	5.07
Cc1noc2c1CN(C(=O)C#Cc1ccccc1)CC2 [Example 8, 3-methyl-5-(3-phenyl-propiolyl)-4,5,6,7-tetrahydro-isoxazolo[4,5-c]pyridine]	5.45
O=C(C#Cc1ccccc1)N1CCc2onc(-c3ccccc3)c2C1 [Example 9, 3-phenyl-5-(3-phenyl-propiolyl)-4,5,6,7-tetrahydro-isoxazolo[4,5-c]pyridine]	5.63
COc1cc2c(cc1OC)CN(C(=O)C#Cc1cccc(Cl)c1)CC2 [Example 11, 2-(3-(3-chlorophenyl)-propiolyl)-6,7-dimethoxy-1,2,3,4-tetrahydro-isoquinoline]	5.57
O=C(C#Cc1cccc(Cl)c1)N1CCc2cc(O)c(O)cc2C1 [Example 13, 2-(3-(3-chlorophenyl)-propiolyl)-7,6-dihydroxy-1,2,3,4-tetrahydro-isoquinoline]	5.60
COc1ccc2c(c1)CCN(C(=O)C#Cc1ccccc1)C2 [Example 14, 6-methoxy-2-(3-phenyl-propiolyl)-1,2,3,4-tetrahydro-isoquinoline]	5.51
COc1cc2c(cc1O)CN(C(=O)C#Cc1cccc(Cl)c1)CC2 [Example 15, 2-(3-(3-chlorophenyl)-propiolyl)-7-hydroxy-6-methoxy-1,2,3,4-tetrahydro-isoquinoline]	6.14
COc1cc2c(cc1O)CCN(C(=O)C#Cc1cccc(Cl)c1)C2 [Example 16, 2-(3-(3-chlorophenyl)-propiolyl)-6-hydroxy-7-methoxy-1,2,3,4-tetrahydro-isoquinoline]	6.14
COc1ccc2c(c1)CCN(C(=O)C#Cc1cccc(Cl)c1)C2 [Example 17, 2-(3-(3-chlorophenyl)-propiolyl)-6-methoxy-1,2,3,4-tetrahydro-isoquinoline]	6.62
Cc1ccc2c(c1)CCN(C(=O)C#Cc1cccc(Cl)c1)C2 [Example 20, 2-(3-(3-chlorophenyl)-propiolyl)-6-methyl-1,2,3,4-tetrahydro-isoquinoline]	7.26
O=C(C#Cc1cccc(Cl)c1)N1CCCc2ccccc2C1 [Example 21, 2-(3-(3-chlorophenyl)-propiolyl)-2,3,4,5-tetrahydro-1H-benzo[c]azepine]	6.96
COc1ccc2c(c1)CN(C(=O)C#Cc1cccc(Cl)c1)CC2 [Example 22, 2-(3-(3-chlorophenyl)-propiolyl)-7-methoxy-1,2,3,4-tetrahydro-isoquinoline]	7.12
O=C(C#Cc1cccc(Cl)c1)N1CCn2ccnc2C1 [Example 23, 7-(3-(3-chlorophenyl)-propiolyl)-5,6,7,8-tetrahydroimidazo[1,2-a]pyrazine]	6.49
Cc1cccc2c1CN(C(=O)C#Cc1cccc(Cl)c1)CC2 [Example 24, 2-(3-(3-chlorophenyl)-propiolyl)-8-methyl-1,2,3,4-tetrahydro-isoquinoline]	8.35
Cc1ccc2c(c1)CN(C(=O)C#Cc1cccc(Cl)c1)CC2 [Example 25, 2-(3-(3-chlorophenyl)-propiolyl)-7-methyl-1,2,3,4-tetrahydro-isoquinoline]	8.33
Cc1cccc2c1CCN(C(=O)C#Cc1cccc(Cl)c1)C2 [Example 26, 2-(3-(3-chlorophenyl)-propiolyl)-5-methyl-1,2,3,4-tetrahydro-isoquinoline]	8.33
O=C(C#Cc1cccc(Cl)c1)N1CCn2cccc2C1 [Example 27, 2-(3-(3-chlorophenyl)-propiolyl)-1,2,3,4-tetrahydropyrrolo[1,2-a]pyrazine]	7.59
O=C(C#Cc1cccc(Cl)c1)N1CCc2ccc(O)cc2C1 [Example 28]	7.06
COc1cccc2c1CN(C(=O)C#Cc1cccc(Cl)c1)CC2 [Example 29, 2-(3-(3-chlorophenyl)-propiolyl)-8-methoxy-1,2,3,4-tetrahydro-isoquinoline]	8.08
Cc1cccc2c1C(C)N(C(=O)C#Cc1cccc(Cl)c1)CC2 (stereo not drawn) [Example 31, 2-(3-(3-chlorophenyl)-propiolyl)-1,8-dimethyl-1,2,3,4-tetrahydro-isoquinoline]	8.59
